Publication PMC8079033, “Design, synthesis, anticancer evaluation, and molecular modelling studies of novel tolmetin derivatives as potential VEGFR-2 inhibitors and apoptosis inducers” (Journal of Enzyme Inhibition and Medicinal Chemistry, 2021)

Assays:
A498 = assay: NCI 60-cell line one-dose antiproliferative screen (SRB); format: cell-based; settings: Homo sapiens, read-out: growth inhibition % (GI%)
Protocol: (§1) Anticancer activity screening of the newly synthesised compounds was measured in vitro utilising 60 different human tumour cell lines provided by US National Cancer Institute according to previously reported standard procedure[41–43] as follows: Cells are inoculated into 96-well microtiter plates in 100 ml. After cell inoculation, the microtiter plates are incubated at 37 °C, 5% CO2, 95% air, and 100% relative humidity for 24 h prior to addition of experimental compounds. After 24 h, two plates of each cell line are fixed in situ with TCA, to represent a measurement of the cell population for each cell line at the time of compound addition (Tz). Experimental compounds are solubilised in dimethyl sulfoxide at 400-fold the desired final maximum test concentration and stored frozen prior to use. At the time of compound addition, an aliquot of frozen concentrate is thawed and diluted to twice the desired final maximum test concentration with a complete medium containing […] gentamicin. Aliquots of […] of the compounds dilutions are added to the appropriate microtiter wells already containing 100 ml of medium, resulting in the required final compound concentration. Following compound addition, the plates are incubated for an additional 48 h at 37 °C, 5% CO2, 95% air, and 100% relative humidity. For adherent cells, the assay is terminated by the addition of cold trichloroacetic acid (TCA). Cells are fixed in situ by the gentle addition of 50 ml of cold 50% (w/v) TCA (final concentration, 10% TCA) and incubated for […] at 4 °C. The supernatant is discarded, and the plates are washed five times with tap water and air-dried. Sulforhodamine B (SRB) solution (100 ml) at 0.4% (w/v) in 1% acetic acid is added to each well, and plates are incubated for 10 min at room temperature. After staining, the unbound dye is removed by washing five times with 1% acetic acid and the plates are air-dried. The bound stain is subsequently solubilised with a 10 mM trizma base, and the absorbance is read on an automated plate reader at a wavelength of 515 nm. For suspension cells, the methodology is the same except that the assay is terminated by fixing settled cells at the bottom of the wells by gently adding 50 ml of 80% TCA (final concentration, 16% TCA). Using the absorbance measurements [time zero, (Tz), control growth, (C), and test growth in the presence of compound (Ti)], the percentage growth is calculated for each compound. The One-dose data are reported as a mean graph of the percent growth of treated cells. The reported number is growth relative to the no-compound control, and relative to the time zero number of cells. This allows the detection of both growth inhibition and lethality.
(§2) Fifteen newly synthesised compounds were tested for their in vitro antiproliferative activity by the National Cancer Institute (NCI), Maryland, USA[50], under the Developmental Therapeutic Program (DTP)[41]^,[43]^,[51]^,[52]. The tested compounds were evaluated at a concentration of 10 µM on a panel of 60 tumour cell lines representing leukaemia and non-small cell lung, colon, CNS, melanoma, ovarian, renal, prostate, and breast cancers. The antiproliferative activity was presented by the NCI as percent growth of the treated cells and is presented in Table 1 as growth inhibition percentage (GI%) achieved by the tested compounds.

A549/ATCC = assay: as above; format: cell-based; settings: Homo sapiens, read-out: growth inhibition % (GI%)
Protocol: as §1, §2

ACHN = assay: as above; format: cell-based; settings: Homo sapiens, read-out: growth inhibition % (GI%)
Protocol: as §1, §2

CAKI-1 = assay: as above; format: cell-based; settings: Homo sapiens, read-out: growth inhibition % (GI%)
Protocol: as §1, §2

EKVX = assay: as above; format: cell-based; settings: Homo sapiens, read-out: growth inhibition % (GI%)
Protocol: as §1, §2

HCT-116 = assay: as above; format: cell-based; settings: Homo sapiens, read-out: growth inhibition % (GI%)
Protocol: as §1, §2

HOP-92 = assay: as above; format: cell-based; settings: Homo sapiens, read-out: growth inhibition % (GI%)
Protocol: as §1, §2

IGROV1 = assay: as above; format: cell-based; settings: Homo sapiens, IGROV-1, read-out: growth inhibition % (GI%)
Protocol: as §1, §2

K-562 = assay: as above; format: cell-based; settings: Homo sapiens, K562, read-out: growth inhibition % (GI%)
Protocol: as §1, §2

KM12 = assay: as above; format: cell-based; settings: Homo sapiens, read-out: growth inhibition % (GI%)
Protocol: as §1, §2

LOX IMVI = assay: as above; format: cell-based; settings: Homo sapiens, read-out: growth inhibition % (GI%)
Protocol: as §1, §2

M14 = assay: as above; format: cell-based; settings: Homo sapiens, read-out: growth inhibition % (GI%)
Protocol: as §1, §2

MALME-3M = assay: as above; format: cell-based; settings: Homo sapiens, read-out: growth inhibition % (GI%)
Protocol: as §1, §2

MCF7 = assay: as above; format: cell-based; settings: Homo sapiens, read-out: growth inhibition % (GI%)
Protocol: as §1, §2

MDA-MB-231/ATCC = assay: as above; format: cell-based; settings: Homo sapiens, read-out: growth inhibition % (GI%)
Protocol: as §1, §2

MDA-MB-435 = assay: as above; format: cell-based; settings: Homo sapiens, read-out: growth inhibition % (GI%)
Protocol: as §1, §2

MDA-MB-468 = assay: as above; format: cell-based; settings: Homo sapiens, read-out: growth inhibition % (GI%)
Protocol: as §1, §2

NCI-H226 = assay: as above; format: cell-based; settings: Homo sapiens, read-out: growth inhibition % (GI%)
Protocol: as §1, §2

NCI-H23 = assay: as above; format: cell-based; settings: Homo sapiens, read-out: growth inhibition % (GI%)
Protocol: as §1, §2

NCI-H322M = assay: as above; format: cell-based; settings: Homo sapiens, read-out: growth inhibition % (GI%)
Protocol: as §1, §2

NCI-H522 = assay: as above; format: cell-based; settings: Homo sapiens, read-out: growth inhibition % (GI%)
Protocol: as §1, §2

NCI/ADR-RES = assay: as above; format: cell-based; settings: Homo sapiens, read-out: growth inhibition % (GI%)
Protocol: as §1, §2

OVCAR-4 = assay: as above; format: cell-based; settings: Homo sapiens, read-out: growth inhibition % (GI%)
Protocol: as §1, §2

OVCAR-5 = assay: as above; format: cell-based; settings: Homo sapiens, read-out: growth inhibition % (GI%)
Protocol: as §1, §2

OVCAR-8 = assay: as above; format: cell-based; settings: Homo sapiens, read-out: growth inhibition % (GI%)
Protocol: as §1, §2

PC-3 = assay: as above; format: cell-based; settings: Homo sapiens, read-out: growth inhibition % (GI%)
Protocol: as §1, §2

RPMI-8226 = assay: as above; format: cell-based; settings: Homo sapiens, read-out: growth inhibition % (GI%)
Protocol: as §1, §2

SF-268 = assay: as above; format: cell-based; settings: Homo sapiens, read-out: growth inhibition % (GI%)
Protocol: as §1, §2

SF-539 = assay: as above; format: cell-based; settings: Homo sapiens, read-out: growth inhibition % (GI%)
Protocol: as §1, §2

SK-MEL-5 = assay: as above; format: cell-based; settings: Homo sapiens, read-out: growth inhibition % (GI%)
Protocol: as §1, §2

SN 12 C = assay: as above; format: cell-based; settings: Homo sapiens, SN12C, read-out: growth inhibition % (GI%)
Protocol: as §1, §2

SNB-19 = assay: as above; format: cell-based; settings: Homo sapiens, read-out: growth inhibition % (GI%)
Protocol: as §1, §2

SNB-75 = assay: as above; format: cell-based; settings: Homo sapiens, read-out: growth inhibition % (GI%)
Protocol: as §1, §2

SR = assay: as above; format: cell-based; settings: Homo sapiens, read-out: growth inhibition % (GI%)
Protocol: as §1, §2

U251 = assay: as above; format: cell-based; settings: Homo sapiens, U-251, read-out: growth inhibition % (GI%)
Protocol: as §1, §2

UACC-257 = assay: as above; format: cell-based; settings: Homo sapiens, read-out: growth inhibition % (GI%)
Protocol: as §1, §2

UACC-62 = assay: as above; format: cell-based; settings: Homo sapiens, read-out: growth inhibition % (GI%)
Protocol: as §1, §2

UO-31 = assay: as above; format: cell-based; settings: Homo sapiens, read-out: growth inhibition % (GI%)
Protocol: as §1, §2

With `Cc1ccc(C(=O)c2ccc(CC(=O)NN=C3C(=O)Nc4ccc(Br)cc43)n2C)cc1` [Compound 6b, N′-(5-Bromo-2-oxoindolin-3-ylidene)-2–(1-methyl-5–(4-methylbenzoyl)-1H-pyrrol-2-yl)acetohydrazide] as the compound, how does the inhibition at 10 µM (A498) read?
Its inhibition at 10 µM is 10.2%.

What about the inhibition at 10 µM (A549/ATCC) of the same compound?
Its inhibition at 10 µM is under 10%.

And the inhibition at 10 µM (ACHN)?
Its inhibition at 10 µM is under 10%.

And the inhibition at 10 µM (CAKI-1)?
The inhibition at 10 µM was 15.4%.

And the inhibition at 10 µM (EKVX)?
Its inhibition at 10 µM is under 10%.

And the inhibition at 10 µM (HCT-116)?
The inhibition at 10 µM was under 10%.

What about the inhibition at 10 µM (HOP-92) of the same compound?
The inhibition at 10 µM was under 10%.

And the inhibition at 10 µM (IGROV1)?
Its inhibition at 10 µM is under 10%.

And the inhibition at 10 µM (K-562)?
Its inhibition at 10 µM is 10.6%.

What about the inhibition at 10 µM (KM12) of the same compound?
The inhibition at 10 µM was under 10%.

What about the inhibition at 10 µM (LOX IMVI) of the same compound?
The inhibition at 10 µM was 10%.

What about the inhibition at 10 µM (M14) of the same compound?
The inhibition at 10 µM was under 10%.

And the inhibition at 10 µM (MALME-3M)?
The inhibition at 10 µM was under 10%.

And the inhibition at 10 µM (MCF7)?
Its inhibition at 10 µM is under 10%.

What about the inhibition at 10 µM (MDA-MB-231/ATCC) of the same compound?
Its inhibition at 10 µM is under 10%.

And the inhibition at 10 µM (MDA-MB-435)?
Its inhibition at 10 µM is under 10%.

What about the inhibition at 10 µM (MDA-MB-468) of the same compound?
The inhibition at 10 µM was under 10%.

What about the inhibition at 10 µM (NCI-H226) of the same compound?
Its inhibition at 10 µM is under 10%.

What about the inhibition at 10 µM (NCI-H23) of the same compound?
Its inhibition at 10 µM is 13.7%.

And the inhibition at 10 µM (NCI-H322M)?
Its inhibition at 10 µM is under 10%.

And the inhibition at 10 µM (NCI-H522)?
Its inhibition at 10 µM is 13.2%.

What about the inhibition at 10 µM (NCI/ADR-RES) of the same compound?
Its inhibition at 10 µM is under 10%.

What about the inhibition at 10 µM (OVCAR-4) of the same compound?
The inhibition at 10 µM was 10.1%.

What about the inhibition at 10 µM (OVCAR-5) of the same compound?
The inhibition at 10 µM was under 10%.

And the inhibition at 10 µM (OVCAR-8)?
The inhibition at 10 µM was under 10%.

What about the inhibition at 10 µM (PC-3) of the same compound?
The inhibition at 10 µM was under 10%.

And the inhibition at 10 µM (RPMI-8226)?
The inhibition at 10 µM was under 10%.

And the inhibition at 10 µM (SF-268)?
Its inhibition at 10 µM is under 10%.

And the inhibition at 10 µM (SF-539)?
Its inhibition at 10 µM is under 10%.

And the inhibition at 10 µM (SK-MEL-5)?
Its inhibition at 10 µM is under 10%.

What about the inhibition at 10 µM (SN 12 C) of the same compound?
Its inhibition at 10 µM is under 10%.

And the inhibition at 10 µM (SNB-19)?
The inhibition at 10 µM was under 10%.

What about the inhibition at 10 µM (SNB-75) of the same compound?
Its inhibition at 10 µM is 36.3%.

What about the inhibition at 10 µM (SR) of the same compound?
Its inhibition at 10 µM is under 10%.

What about the inhibition at 10 µM (U251) of the same compound?
Its inhibition at 10 µM is 34.4%.

What about the inhibition at 10 µM (UACC-257) of the same compound?
The inhibition at 10 µM was under 10%.

What about the inhibition at 10 µM (UACC-62) of the same compound?
The inhibition at 10 µM was under 10%.

What about the inhibition at 10 µM (UO-31) of the same compound?
Its inhibition at 10 µM is 25%.

And the melting point?
Its melting point is 195 to 197 °C.
